Measured values as given in patent US7220875B2, “Amino acid derived prodrugs of propofol, compositions and uses thereof” (priority 2003, dated 2007).

Assays:
[1] = Enzymatic cleavage of prodrugs in vitro, rat plasma; assay type: in vitro ADME; conditions: substrate 2.0 μM, 37° C.
Experimental: (§1) The stability of propofol prodrugs were evaluated in one or more in vitro systems using a variety of tissue preparations following methods known in the art. Tissues were obtained from commercial sources (e.g., Pel-Freez Biologicals, Rogers, Ark., or GenTest Corporation, Woburn, Mass.). Experimental conditions used for the in vitro studies are described in Table 1 below. Each preparation was incubated with test compound at 37° C. for one hour. Aliquots (50 μL) were removed at 0, 30, and 60 min and quenched with 0.1% trifluoroacetic acid in acetonitrile. Samples were then centrifuged and analyzed by LC/MS/MS (see Examples 59 and 60 below for method details). Stability of drug conjugates towards specific enzymes (e.g., peptidases, etc.) were also assessed in vitro by incubation with the purified enzyme: […]

[2] = Enzymatic cleavage of prodrugs in vitro, human plasma; assay type: in vitro ADME; conditions: substrate 2.0 μM, 37° C.
Experimental: as §1

[3] = Enzymatic cleavage of prodrugs in vitro, rat liver S9; assay type: in vitro ADME; conditions: Rat Liver S9 (0.5 mg/mL), substrate 2.0 μM, NADPH, 37° C.
Experimental: as §1

[4] = Enzymatic cleavage of prodrugs in vitro, human liver S9; assay type: in vitro ADME; conditions: Human Liver S9 (0.5 mg/mL), substrate 2.0 μM, NADPH, 37° C.
Experimental: as §1

[5] = Caco-2 homogenate S9 stability; assay type: in vitro ADME; conditions: Caco-2 S9 (0.5 mg protein per mL), prodrug 5 μM, 37° C.
Experimental: (§2) The stability of propofol prodrugs were evaluated in one or more in vitro systems using a variety of tissue preparations following methods known in the art. Tissues were obtained from commercial sources (e.g., Pel-Freez Biologicals, Rogers, Ark., or GenTest Corporation, Woburn, Mass.). Experimental conditions used for the in vitro studies are described in Table 1 below. Each preparation was incubated with test compound at 37° C. for one hour. Aliquots (50 μL) were removed at 0, 30, and 60 min and quenched with 0.1% trifluoroacetic acid in acetonitrile. Samples were then centrifuged and analyzed by LC/MS/MS (see Examples 59 and 60 below for method details). Stability of drug conjugates towards specific enzymes (e.g., peptidases, etc.) were also assessed in vitro by incubation with the purified enzyme:
Caco-2 Homogenate S9 Stability: Caco-2 cells were grown for 21 days prior to harvesting. Culture medium was removed and cell monolayers were rinsed and scraped off into ice-cold 10 mM sodium phosphate/0.15 M potassium chloride, pH 7.4. Cells were lysed by sonication at 4° C. using a probe sonicator. Lysed cells were then transferred into 1.5 mL centrifuge vials and centrifuged at 9000 g for 20 min at 4° C. The resulting supernatant (Caco-2 cell homogenate S9 fraction) was aliquoted into 0.5 mL vials and stored at −80° C. until used.
For stability studies, prodrug (5 μM) was incubated in Caco-2 homogenate S9 fraction (0.5 mg protein per mL) for 60 min at 37° C. Concentrations of intact prodrug and released propofol were determined at zero time and 60 minutes using LC/MS/MS.

pancreatin = assay: Pancreatin stability; assay type: in vitro ADME, porcine; conditions: 1% (w/v) pancreatin, pH 7.5, conjugate 5 μM, 37° C.
Experimental: as §2
Pancreatin Stability: Stability studies were conducted by incubating conjugate (5 μM) with 1% (w/v) pancreatin (Sigma, P-1625, from porcine pancreas) in 0.025 M Tris buffer containing 0.5 M NaCl (pH 7.5) at 37° C. for 60 min. The reaction was stopped by addition of 2 volumes of methanol. After centrifugation at 14,000 rpm for 10 min, the supernatant was removed and analyzed by LC/MS/MS.

in vivo = conditions: male, Sprague-Dawley, rat, plasma, oral, 25 mg per kg body weight
Experimental: Propofol was administered as an intravenous bolus injection or by oral gavage to groups of four to six adult male Sprague-Dawley rats (weight approx 250 g) as solutions in PEG400, at doses of 10 mg per kg body weight (I.V.) or 25 mg per kg body weight (oral). Animals were fasted overnight before the study and for 4 hours post-dosing. Blood samples (1.0 mL) were obtained via a jugular vein cannula at intervals over 24 hours after oral dosing. Blood was quenched immediately using acetonitrile with 1% formic acid and then was frozen at −80° C. until analyzed.
Concentrations of propofol in plasma were determined using an API 4000 LC/MS/MS instrument equipped with an Agilent 1100 binary pump and an Agilent autosampler. The column was a Phenomenex Hydro-RP 4.6*50 mm column operating at room temperature. The mobile phases were 2 mM aqueous ammonium acetate (A) and 95% acetonitrile with 5 mM ammonium acetate (B). The gradient condition was: 5% B for 1 min, increasing to 90% B in 2.5 min and maintained for 2 min. 20 μL of sample was injected. A Turbo-IonSpray source was used, and propofol was detected in negative ion mode in Q1 at m/z=177. The peaks were integrated using Analyst 1.2 quantitation software.

[6] = rats; oral dosing; cited from earlier work

Molecule | % of Propofol Released from Propofol Prodrugs after 60 min. [1] [%] | % of Propofol Released from Propofol Prodrugs after 60 min. [2] [%] | % of Propofol Released from Propofol Prodrugs after 60 min. [3] [%] | % of Propofol Released from Propofol Prodrugs after 60 min. [4] [%] | % of Propofol Released from Propofol Prodrugs after 60 min. [5] [%] | % of Propofol Released from Propofol Prodrugs after 60 min. (pancreatin) [%] | bioavailability (in vivo) [%] | administered drug undergoing first pass metabolism [6]
CC(C)c1cccc(C(C)C)c1OC(=O)C[C@H](NC(=O)[C@H](C)N)C(=O)O [Compound 107, H-Ala-Asp(OPropofol)-OH] | 3 | 1 | 6 | 5 | 4 | 7 | – | –
CSCC[C@H](N)C(=O)N[C@@H](CC(=O)Oc1c(C(C)C)cccc1C(C)C)C(=O)O [Compound 121, H-Met-Asp(OPropofol)-OH] | 7 | 3 | 0 | 0 | 0 | 0 | – | –
CC(C)c1cccc(C(C)C)c1OC(=O)C[C@H](NC(=O)[C@@H](N)Cc1ccc(O)cc1)C(=O)O [Compound 122, H-Tyr-Asp(OPropofol)-OH] | 2 | 0 | 9 | 6 | 0 | 10 | – | –
CC(C)c1cccc(C(C)C)c1OC(=O)CC[C@H](NC(=O)[C@@H](N)CC(N)=O)C(=O)O [Compound 124, H-Asn-Glu(OPropofol)-OH] | 65 | 2 | 0 | 0 | 0 | 4 | – | –
CC(C)c1cccc(C(C)C)c1OC(=O)CC[C@H](N)C(=O)N[C@@H](C)C(=O)O [Compound 138, H-Glu(OPropofol)-Ala-OH] | 50 | 44 | 0 | 0 | 3 | 9 | – | –
CC(C)c1cccc(C(C)C)c1OC(=O)OC[C@H](NC(=O)[C@H](C)N)C(=O)O [Compound 161, H-Ala-Ser(β-OC(O)OPropofol)-OH] | 30 | 2 | 8 | 14 | 20 | 8 | – | –
CC(C)c1cccc(C(C)C)c1O [Propofol, 2,6-diisopropylphenol] | – | – | – | – | – | – | 0.23 | approximately 90%
H-Asp-Asp(OCH2OPropofol)-OH [Compound 220] | – | 1 | – | 0 | 49 | 6 | – | –
H-Gly-Tyr-OPropofol [Compound 192] | 15 | 15 | 60 | 60 | 41 | 0 | – | –
